Measured values as given in article PMC11191095, “QSAR Reveals Decreased Lipophilicity of Polar Residues Determines the Selectivity of Antimicrobial Peptide Activity” (ACS Omega, 2024).
Where a SMILES comes first, the peptide text is derived from it.

Key:
Assay in all cases: microbe, parasite or virus in culture
[1] = test system: S. aureus (MSSA) ATCC 9144; type: cell-based, Staphylococcus aureus; conditions: S. aureus (MSSA) ATCC 9144 (S)
Procedure, shortened: (§1)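 Peptides 128→2 μg/mL, 2-fold series; inoculum ~5 × 10^5 CFU/mL from overnight culture (OD600 0.01, mixed 1:1). MHB non-cation-adjusted for bacteria, RPMI 1640 + 2% glucose for fungi. 37 °C, 20 h, OD600. MIC50/MIC90 at 50%/90% inhibition; n ≥ 3.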

[2] = test system: S. aureus (MRSA) NCTC 13616; type: cell-based, Staphylococcus aureus; conditions: S. aureus (MRSA) NCTC 13616 (R)
Procedure, shortened: as §1

[3] = test system: S. aureus (MRSA) 1199B; type: cell-based, Staphylococcus aureus; conditions: S. aureus (MRSA) 1199B (R)
Procedure, shortened: as §1

[4] = test system: S. aureus (MRSA) USA300; type: cell-based, Staphylococcus aureus; conditions: S. aureus (MRSA) USA300 (R)
Procedure, shortened: as §1

[5] = test system: C. tropicalis NCPF 8760; type: cell-based; conditions: C. tropicalis NCPF 8760
Procedure, shortened: as §1

[6] = test system: C. krusei NCPF 3876; type: cell-based; conditions: C. krusei NCPF 3876
Procedure, shortened: as §1

[7] = test system: C. glabrata NCPF 8018; type: cell-based; conditions: C. glabrata NCPF 8018
Procedure, shortened: as §1

[8] = test system: C. parapsilosis NCPF 3209; type: cell-based; conditions: C. parapsilosis NCPF 3209
Procedure, shortened: as §1

[9] = test system: C. albicans NCPF 3281; type: cell-based; conditions: C. albicans NCPF 3281
Procedure, shortened: as §1

[10] = test system: P. aeruginosa NCTC 13437; type: cell-based, Pseudomonas aeruginosa; conditions: P. aeruginosa NCTC 13437 (R)
Procedure, shortened: as §1

[11] = test system: K. pneumoniae NCTC 13368; type: cell-based, Klebsiella pneumoniae; conditions: K. pneumoniae NCTC 13368 (R)
Procedure, shortened: as §1

[12] = test system: K. pneumoniae M6; type: cell-based, Klebsiella pneumoniae; conditions: K. pneumoniae M6 (S)
Procedure, shortened: as §1

[13] = test system: E. coli LEC001; type: cell-based, Escherichia coli; conditions: E. coli LEC001 (R)
Procedure, shortened: as §1

[14] = test system: E. coli NCTC 12923; type: cell-based, Escherichia coli; conditions: E. coli NCTC 12923 (S)
Procedure, shortened: as §1

[15] = test system: A. baumannii ATCC 17978; type: cell-based, Acinetobacter baumannii; conditions: A. baumannii ATCC 17978 (S)
Procedure, shortened: as §1

[16] = test system: A. baumannii AYE; type: cell-based, Acinetobacter baumannii; conditions: A. baumannii AYE (R)
Procedure, shortened: as §1

[17] = MHB, 37 °C, 20 h, OD600, min. three biological repeats
[18] = 50% growth inhibition, RPMI 1640 + 2% glucose, 37 °C, 20 h
[19] = 90% growth inhibition, RPMI 1640 + 2% glucose, 37 °C, 20 h
[20] = MHB, ~5×10^5 CFU/mL, 37 °C, 20 h, OD600, min. three biological repeats

**Q.** How did the “Modal MIC” value [1, 17] turn out when CC(C)C[C@H](NC(=O)[C@H](CCCCN)NC(=O)[C@H](CO)NC(=O)[C@H](CCCCN)NC(=O)[C@@H](N)Cc1c[nH]c2ccccc12)C(=O)N[C@@H](C)C(=O)N[C@@H](CCCCN)C(=O)N[C@@H](CCCCN)C(N)=O [PS-PB-8a] (H-WKSKLAKK-NH2) was run?
**A.** The value was > 128 µg/mL.

**Q.** What about the “Modal MIC” value ([1]; shown in µM) of the same molecule?
**A.** Its value is > 127.2 µM.

**Q.** And the “Modal MIC” value [2, 17]?
**A.** Its value is > 128 µg/mL.

**Q.** What about the “Modal MIC” value ([2]; shown in µM) of the same molecule?
**A.** The value was > 127.2 µM.

**Q.** And the “Modal MIC” value [3, 17]?
**A.** The value was > 128 µg/mL.

**Q.** What about the “Modal MIC” value ([3]; shown in µM) of the same molecule?
**A.** The value was > 127.2 µM.

**Q.** And the “Modal MIC” value [4, 17]?
**A.** Its value is > 128 µg/mL.

**Q.** And the “Modal MIC” value ([4]; shown in µM)?
**A.** The value was > 127.2 µM.

**Q.** What about the “Modal MIC50” value [5, 18] of the same molecule?
**A.** The value was > 128 µg/mL.

**Q.** What about the “Modal MIC90” value [5, 19] of the same molecule?
**A.** The value was > 128 µg/mL.

**Q.** What about the “Modal MIC50” value ([5]; shown in µM) of the same molecule?
**A.** The value was > 127.2 µM.

**Q.** What about the “Modal MIC90” value ([5]; shown in µM) of the same molecule?
**A.** Its value is > 127.2 µM.

**Q.** What about the “Modal MIC50” value [6, 18] of the same molecule?
**A.** The value was > 128 µg/mL.

**Q.** And the “Modal MIC90” value [6, 19]?
**A.** The value was > 128 µg/mL.

**Q.** And the “Modal MIC50” value ([6]; shown in µM)?
**A.** Its value is > 127.2 µM.

**Q.** What about the “Modal MIC90” value ([6]; shown in µM) of the same molecule?
**A.** The value was > 127.2 µM.

**Q.** And the “Modal MIC50” value [7, 18]?
**A.** The value was > 128 µg/mL.

**Q.** What about the “Modal MIC90” value [7, 19] of the same molecule?
**A.** The value was > 128 µg/mL.

**Q.** What about the “Modal MIC50” value ([7]; shown in µM) of the same molecule?
**A.** The value was > 127.2 µM.

**Q.** What about the “Modal MIC90” value ([7]; shown in µM) of the same molecule?
**A.** The value was > 127.2 µM.

**Q.** And the “Modal MIC50” value [8, 18]?
**A.** The value was > 128 µg/mL.

**Q.** What about the “Modal MIC90” value [8, 19] of the same molecule?
**A.** The value was > 128 µg/mL.

**Q.** What about the “Modal MIC50” value ([8]; shown in µM) of the same molecule?
**A.** The value was > 127.2 µM.

**Q.** And the “Modal MIC90” value ([8]; shown in µM)?
**A.** The value was > 127.2 µM.

**Q.** And the “Modal MIC50” value [9, 18]?
**A.** The value was > 128 µg/mL.

**Q.** What about the “Modal MIC90” value [9, 19] of the same molecule?
**A.** The value was > 128 µg/mL.

**Q.** What about the “Modal MIC50” value ([9]; shown in µM) of the same molecule?
**A.** The value was > 127.2 µM.

**Q.** What about the “Modal MIC90” value ([9]; shown in µM) of the same molecule?
**A.** The value was > 127.2 µM.

**Q.** And the “Modal MIC” value [10, 17]?
**A.** Its value is > 128 µg/mL.

**Q.** And the “Modal MIC” value ([10]; shown in µM)?
**A.** The value was > 127.2 µM.

**Q.** And the “Modal MIC” value [11, 17]?
**A.** Its value is > 128 µg/mL.

**Q.** What about the “Modal MIC” value ([11]; shown in µM) of the same molecule?
**A.** The value was > 127.2 µM.

**Q.** What about the “Modal MIC” value [12, 17] of the same molecule?
**A.** Its value is > 128 µg/mL.

**Q.** What about the “Modal MIC” value ([12]; shown in µM) of the same molecule?
**A.** The value was > 127.2 µM.

**Q.** And the “Modal MIC” value [13, 17]?
**A.** Its value is > 128 µg/mL.

**Q.** What about the “Modal MIC” value ([13]; shown in µM) of the same molecule?
**A.** Its value is > 127.2 µM.

**Q.** And the “Modal MIC” value [14, 20]?
**A.** Its value is > 128 µg/mL.

**Q.** And the “Modal MIC” value ([14]; shown in µM)?
**A.** The value was > 127.2 µM.

**Q.** What about the “Modal MIC” value [15, 17] of the same molecule?
**A.** Its value is > 128 µg/mL.

**Q.** What about the “Modal MIC” value ([15]; shown in µM) of the same molecule?
**A.** Its value is > 127.2 µM.

**Q.** And the “Modal MIC” value [16, 17]?
**A.** Its value is > 128 µg/mL.

**Q.** What about the “Modal MIC” value ([16]; shown in µM) of the same molecule?
**A.** The value was > 127.2 µM.

**Q.** Which results are given for CC[C@H](C)[C@H](NC(=O)CNC(=O)[C@@H](N)CCCCN)C(=O)N[C@@H](CCCNC(=N)N)C(=O)NCC(=O)N[C@@H](Cc1ccc(O)cc1)C(=O)N[C@@H](CCCCN)C(=O)NCC(=O)NCC(=O)N[C@@H](Cc1ccc(O)cc1)C(=O)N[C@@H](CS)C(=O)N[C@@H](CCCCN)C(=O)NCC(=O)N[C@@H](C)C(=O)N[C@@H](Cc1ccccc1)C(=O)N[C@@H](CCCCN)C(=O)N[C@@H](CCC(N)=O)C(=O)N[C@H](C(=O)N[C@@H](CS)C(=O)N[C@@H](CCCCN)C(=O)N[C@@H](CS)C(=O)N[C@@H](Cc1ccc(O)cc1)C(N)=O)[C@@H](C)O [Osa] (H-KGIRGYKGGYCKGAFKQTCKCY-NH2; N-terminus assumed)?
**A.** Modal MIC [1, 17]: > 128 µg/mL; Modal MIC ([1]; shown in µM): > 51.7 µM; Modal MIC [2, 17]: > 128 µg/mL; Modal MIC ([2]; shown in µM): > 51.7 µM; Modal MIC [3, 17]: > 128 µg/mL; Modal MIC ([3]; shown in µM): > 51.7 µM; Modal MIC [4, 17]: > 128 µg/mL; Modal MIC ([4]; shown in µM): > 51.7 µM; Modal MIC50 [5, 18]: > 128 µg/mL; Modal MIC90 [5, 19]: > 128 µg/mL; Modal MIC50 ([5]; shown in µM): > 51.7 µM; Modal MIC90 ([5]; shown in µM): > 51.7 µM; Modal MIC50 [6, 18]: > 128 µg/mL; Modal MIC90 [6, 19]: > 128 µg/mL; Modal MIC50 ([6]; shown in µM): > 51.7 µM; Modal MIC90 ([6]; shown in µM): > 51.7 µM; Modal MIC50 [7, 18]: > 128 µg/mL; Modal MIC90 [7, 19]: > 128 µg/mL; Modal MIC50 ([7]; shown in µM): > 51.7 µM; Modal MIC90 ([7]; shown in µM): > 51.7 µM; Modal MIC50 [8, 18]: > 128 µg/mL; Modal MIC90 [8, 19]: > 128 µg/mL; Modal MIC50 ([8]; shown in µM): > 51.7 µM; Modal MIC90 ([8]; shown in µM): > 51.7 µM; Modal MIC50 [9, 18]: > 128 µg/mL; Modal MIC90 [9, 19]: > 128 µg/mL; Modal MIC50 ([9]; shown in µM): > 51.7 µM; Modal MIC90 ([9]; shown in µM): > 51.7 µM; Modal MIC [10, 17]: > 128 µg/mL; Modal MIC ([10]; shown in µM): > 51.7 µM; Modal MIC [11, 17]: > 128 µg/mL; Modal MIC ([11]; shown in µM): > 51.7 µM; Modal MIC [12, 17]: > 128 µg/mL; Modal MIC ([12]; shown in µM): > 51.7 µM; Modal MIC [13, 17]: > 128 µg/mL; Modal MIC ([13]; shown in µM): > 51.7 µM; Modal MIC [14, 20]: > 128 µg/mL; Modal MIC ([14]; shown in µM): > 51.7 µM; Modal MIC [15, 17]: > 128 µg/mL; Modal MIC ([15]; shown in µM): > 51.7 µM; Modal MIC [16, 17]: > 128 µg/mL; Modal MIC ([16]; shown in µM): > 51.7 µM
